Results reported in patent US12441730B2, “PRMT5 inhibitors” (Merck Sharp & Dohme LLC, priority 2019, dated 2025).
Where two headings read alike, the source gives them in different places.

Key:
[1] = target: T1, Full-length (FL)-PRMT5-MEP50 enzyme complex (Homo sapiens, UniProt O14744); assay: PRMT5-MEP50 Enzyme Methylation Assay (Version B); type: biochemical
T1 construct: Full-length (FL)-PRMT5-MEP50 enzyme complex (recombinant proteins from baculovirus-transfected Sf21 cells: FL-PRMT5; MW=73837 kDa and FL-MEP50; MW=38614); made in house; host or cells: baculovirus-transfected Sf21 cells
T1 sequence (O14744 whole entry): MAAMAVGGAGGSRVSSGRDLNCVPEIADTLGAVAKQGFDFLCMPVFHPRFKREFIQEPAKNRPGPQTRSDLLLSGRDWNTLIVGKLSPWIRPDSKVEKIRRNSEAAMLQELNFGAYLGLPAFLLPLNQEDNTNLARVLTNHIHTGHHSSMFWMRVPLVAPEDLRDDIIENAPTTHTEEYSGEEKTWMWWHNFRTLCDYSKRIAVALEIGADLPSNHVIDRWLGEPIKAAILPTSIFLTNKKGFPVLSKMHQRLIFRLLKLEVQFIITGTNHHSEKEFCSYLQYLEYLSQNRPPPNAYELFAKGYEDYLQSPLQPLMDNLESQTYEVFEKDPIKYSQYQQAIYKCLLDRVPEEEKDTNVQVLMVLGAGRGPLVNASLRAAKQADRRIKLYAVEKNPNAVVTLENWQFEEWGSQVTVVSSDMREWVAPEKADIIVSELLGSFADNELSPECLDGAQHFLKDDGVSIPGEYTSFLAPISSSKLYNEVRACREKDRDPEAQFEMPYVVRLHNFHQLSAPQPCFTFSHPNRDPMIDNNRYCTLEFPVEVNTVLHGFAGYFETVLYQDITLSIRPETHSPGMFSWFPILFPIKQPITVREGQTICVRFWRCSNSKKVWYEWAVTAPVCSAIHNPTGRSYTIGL
T1 sequence (Q9BQA1 whole entry partner): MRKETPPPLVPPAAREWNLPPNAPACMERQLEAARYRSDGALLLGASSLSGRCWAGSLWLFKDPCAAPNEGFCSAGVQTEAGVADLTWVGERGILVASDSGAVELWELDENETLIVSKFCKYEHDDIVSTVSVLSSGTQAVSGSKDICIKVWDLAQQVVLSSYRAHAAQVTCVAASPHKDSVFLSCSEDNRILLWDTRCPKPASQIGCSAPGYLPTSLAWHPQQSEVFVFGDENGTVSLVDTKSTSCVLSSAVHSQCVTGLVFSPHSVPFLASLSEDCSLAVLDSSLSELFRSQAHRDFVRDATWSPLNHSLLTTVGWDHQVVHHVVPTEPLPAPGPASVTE
Experimental: PRMT5-MEP50 Enzyme Methylation Assay (Version B)
PRMT5/MEP50 biochemical assay is a direct measurement of the methylation activity of the enzyme complex on a short peptide substrate derived from the N-terminus of H4 histone. Methylation experiment was performed with recombinant protein. The assessment of inhibitory effect (IC50) of small molecules was measured by the effectiveness of the compounds to inhibit this reaction.
In this assay, the potency (IC50) of each compound was determined from a twenty-point (1:2 serial dilution; top compound concentration of 100000 nM) titration curve using the following outlined procedure. To each well of a white ProxiPlus 384 well-plate, 100 nL of compound (1% DMSO in final assay volume of 10 μL) was dispensed, followed by the addition of 8 μL of 1× assay buffer (50 mM Bicine pH 8.0, 1 mM DTT, 0.004% Tween20, 0.01% BSA) containing 0.5 nM of Full-length (FL)-PRMT5-MEP50 enzyme complex (recombinant proteins from baculovirus-transfected Sf21 cells: FL-PRMT5; MW=[…] and FL-MEP50; MW=38614). Plates were sealed and placed in a 37° C. humidified chamber for 30 minutes pre-incubation with compounds. Subsequently, each reaction was initiated by the addition of 2 μL 1× assay buffer containing 75 nM biotinylated H4R3 (Me1) peptide, and 15 μM S-(5′-Adenosyl)-L-Methionine Chloride (SAM). The final reaction in each well of 10 μL consists of 0.5 nM PRMT5-MEP50, 75 nM biotinylated-peptide, and 15 μM SAM. Methylation reactions were allowed to proceed for 150 minutes in a sealed plate at 37° C. Reactions were immediately quenched by the addition of 1 μL of 10% formic acid. Plates were then frozen and shipped to SAMDI™ Tech Inc. to determine the percent conversion from […]. EC50 values were determined by non-linear regression according to models for either sigmoidal (4 parameters) or biphasic (7 parameters) dose-response curves.

[2] = tested on: symmetric dimethylation of arginine (SDMA) of PRMT5 substrates in MCF-7 cells; assay: PRMT5 Cell Target Engagement (TE) Assay; type: cell-based; conditions: Homo sapiens, MCF7, 72 h, 3 days treatment, SDMA high content imaging
Summary of the method: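 Readout is single-cell nuclear symmetric-dimethylarginine immunofluorescence (Alexa488), normalized to DMSO-treated cells. Compounds were applied to MCF-7 cells for 3 days at 37 °C, top concentration 10000 nM in 1:3 steps over ten points; curves fitted with 4-parameter robust fit.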

[3] = second value of 7 parameter biphasic fit, read-out: Enzyme Methylation Assay Version B (EC50 2)
[4] = single EC50 = 4 parameter single site sigmoidal fit, EC50 1 = first value of 7 parameter biphasic fit, read-out: Enzyme Methylation Assay Version B (EC50 or EC50 1)

Compound | EC50 [1, 3] [nM] | EC50 [1, 4] [nM] | EC50 [2] [nM]
CCOc1cc(C(=O)N2C3CCC2COC3)ccc1C(=O)N1CCC2(CC1)Cc1ccc(Cl)cc1CN2 [Example 52, [4-(7-chloro-1,4-dihydro-1H,2H-spiro[isoquinoline-3,4′-piperidine]-1′-carbonyl)-3-ethoxyphenyl](3-oxa-8-azabicyclo[3.2.l]octan-8-yl)methanone] | 2250 | 6.71 | 87.7
O=C(c1ccc(C(F)(F)F)nc1Cl)N1CCC2(CC1)Cc1ccccc1CN2 [Example 116, [2-chloro-6-(trifluoromethyl)pyridin-3-yl](1,4-dihydro-1′H,2H-spiro[isoquinoline-3,4′-piperidin]-1′-yl)methanone] | ≥ 100000 | 807 | ≥ 10000
Cn1ncnc1-c1ccc(C(=O)N2CCC3(CC2)Cc2ccccc2CN3)cc1 [Example 117, (1,4-dihydro-1′H,2H-spiro[isoquinoline-3,4′-piperidin]-1′-yl)[4-(1-methyl-1H-1,2,4-triazol-5-yl)phenyl]methanone] | ≥ 100000 | 690 | ≥ 10000
CCOc1cc(C(=O)N2C3CCC2COC3)ccc1C(=O)N1CCC2(CC1)Cc1ccccc1CN2 [Example 172, (4-(3-oxa-8-azabicyclo[3.2.1]octane-8-carbonyl)-2-ethoxyphenyl)(1,4-dihydro-2H-spiro[isoquinoline-3,4′-piperidin]-1′-yl)methanone] | 1940 | 5.42 | 88.9
O=C(c1ccc(C(=O)N2C3CCC2COC3)cc1)N1CCC2(CC1)Cc1ccccc1CN2 [Example 173, (4-(3-oxa-8-azabicyclo[3.2.1]octane-8-carbonyl)phenyl)(1,4-dihydro-2H-spiro[isoquinoline-3,4′-piperidin]-1′-yl)methanone] | 14400 | 32.3 | 5310
[2H]C1([2H])NC2(CCN(C(=O)c3ccc(C(=O)N4C5CCC4COC5)cc3OCC)CC2)Cc2ccccc21 [Example 175, (4-(3-oxa-8-azabicyclo[3.2.1]octane-8-carbonyl)-2-ethoxyphenyl)(1,4-dihydro-2H-spiro[isoquinoline-3,4′-piperidin]-1′-yl-1,1-d2)methanone] | 2490 | 6.32 | 156
O=C(c1ccc(C(=O)N2C3CCC2COC3)cc1OC1CC1)N1CCC2(CC1)Cc1ccccc1CN2 [Example 176, (4-(3-oxa-8-azabicyclo[3.2.1]octane-8-carbonyl)-2-cyclopropoxyphenyl)(1,4-dihydro-2H-spiro[isoquinoline-3,4′-piperidin]-1′-yl)methanone] | 2860 | 11 | 253

Other lines, results leading:

EC50 [1, 3] [nM] | EC50 [1, 4] [nM] | EC50 [2] [nM] | Compound
5550 | 6.21 | 488 | CC(=O)N1CCC(Nc2cc(C(=O)N3CCC4(CC3)Cc3ccc(Cl)cc3CN4)ncn2)CC1 [Example 53, 1-(4-{[6-(7-chloro-1,4-dihydro-1′H,2H-spiro[isoquinoline-3,4′-piperidine]-1′-carbonyl)pyrimidin-4-yl]amino}piperidin-1-yl)ethan-1-one]
8710 | 3.31 | 53 | O=C(c1ccc(-c2ncnn2C2CC2)cc1Cl)N1CC[C@]2(Cc3ccccc3CN2)[C@H](O)C1 [Example 110, (2-chloro-4-(1-cyclopropyl-1H-1,2,4-triazol-5-yl)phenyl)((3R,3′R)-3′-hydroxy-1,4-dihydro-2H-spiro[isoquinoline-3,4′-piperidin]-1′-yl)methanone]
15000 | 15.1 | 7550 | CCOc1nc(Cl)ccc1C(=O)N1CCC2(CC1)Cc1ccccc1CN2 [Example 114, (6-chloro-2-ethoxypyridin-3-yl)(1,4-dihydro-1′H,2H-spiro[isoquinoline-3,4′-piperidin]-1′-yl)methanone]
55000 | 86.3 | ≥ 10000 | CCOc1nc(C(F)(F)F)ccc1C(=O)N1CCC2(CC1)Cc1ccccc1CN2 [Example 115, (1,4-dihydro-1′H,2H-spiro[isoquinoline-3,4′-piperidin]-1′-yl)[2-ethoxy-6-(trifluoromethyl)pyridin-3-yl]methanone]
≥ 100000 | 510 | ≥ 10000 | O=C(c1ccc(-c2nnc(C3CC3)o2)cc1)N1CCC2(CC1)Cc1ccccc1CN2 [Example 118, [4-(5-cyclopropyl-1,3,4-oxadiazol-2-yl)phenyl](1,4-dihydro-1′H,2H-spiro[isoquinoline-3,4′-piperidin]-1′-yl)methanone]
8840 | 13.3 | 797 | CC(=O)N1CCC(Nc2cc(C(=O)N3CCC4(CC3)Cc3ccccc3CN4)ccn2)CC1 [Example 174, 1-(4-((4-(1,4-dihydro-2H-spiro[isoquinoline-3,4′-piperidine]-1′-carbonyl)pyridin-2-yl)amino)piperidin-1-yl)ethan-1-one]
